4 molecules from paper PMC12670405, “Second-Generation AURKA-Targeting PROTACs: Structural Optimization toward in Vivo Degradation in Neuroblastoma” (Journal of Medicinal Chemistry, 2025) can be followed below.

One may read the Ki as a measure of affinity in units of concentration, obtained from inhibition or displacement. As usually defined, the microsomal CLint is the rate of metabolic loss divided by the concentration. Read a high microsomal CLint as rapid turnover. As a reminder, the hepatocyte CLint is the capacity of the preparation to metabolise the compound, expressed as a volume cleared per time. A high value points to faster metabolism. As a reminder, the Dmax is the largest share of the target that was removed. A high value points to a fuller loss of target. Usually DC50 stands for the midpoint of the concentration-degradation curve.

In series [1] the test system is MYCN. As to the kind of experiment: MYCN protein levels, Simple Western. It is filed as cell-based, human. To be noted: IMR-32. As for the experimental part:
Cells were seeded in T-25 flasks at different densities ranging from 1 to 2 million cells per flask and allowed to adhere for 1–2 days. In experiments involving compound treatment, this was done by medium replacement containing the compound(s) of interest in their corresponding concentrations. In competition binding experiments, cells were first pretreated with an excess of MK-5108, thalidomide or MG-132 for 1 h by shaking gently at room temperature prior to addition of SK4454 or SK5527. All samples were normalized to contain the same percentage of DMSO as the negative DMSO controls. Cells were harvested on ice at their respective time points by scraping, washed with ice-cold PBS to collect remaining cells, and centrifuged (2500 rpm, 4 °C). A second washing and centrifugation step was performed prior to collection of the final cell pellets which were then snap-frozen in liquid nitrogen and kept frozen at −80 °C until further processing. Lysis of cell pellets occurred in cold RIPA buffer (0.5% w/v Sodium Deoxycholate, 150 mM NaCl, 50 mM TrisHCl pH 7.5, 0.1% w/v SDS, 1% w/v NP-40) supplemented with protease and phosphatase inhibitors (Roche, #11836145001, #04906845001) by rotating gently at 4 °C for 1h, followed by a centrifugation step for 10 min (10,000 rpm, 4 °C). The supernatant was collected and concentrations of the obtained protein lysates were measured using the Pierce BCA Protein Assay Kit (Thermo Fisher Scientific, #23227).
Simple Western analyses were performed with the Wes instrument (Bio-Techne) using the 12–230 kDa Wes Separation module and the EZ standard pack reagent 1 (Biotechne, #SM-W001, #PS-ST01EZ-8) following the manufacturer’s protocol. Protein lysates were loaded at 0.8 μg/μL under denaturing conditions (0.2 μg/μL for MYCN detection). Chemiluminescence peaks were generated by the Compass Software (Bio-Techne) and the area under the peaks calculated using the Gaussian fit method. Per lane, quantified data were always normalized to that of the loading control (Vinculin) prior to calculating fold changes relative to the negative DMSO control. Mean fold changes are calculated from 3 individual experiments. A list of the primary and secondary antibodies used can be found in the Supporting Information (Supplementary Table S7).
(§1) Graphs were generated using GraphPad Prism Software (version 10.1.2) or RStudio (R-4.3.2). All dose–response curves were computed on GraphPad Prism using the Variable Slope (four parameters) equation. Absolute half-maximal degradation (DC50), growth inhibitory (GI50) and enzymatic inhibitory (IC50) concentrations, as well as inhibition constants (Ki) were derived from dose–response curves via interpolation. Statistical tests were performed on GraphPad Prism and detailed in the figure legends. Unless otherwise stated, “n” in the figure legends indicates the number of independent experiments conducted at different times.

Series [2] has as its system IMR-32. As to the kind of experiment: IncuCyte live-cell imaging, antiproliferative effect. It is filed as cell-based. To be noted: Homo sapiens, IMR-32, 72 h; read-out: GI50. A digest of the protocol:
(§2)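 Cells seeded in 384-well plates (neuroblastoma 1200–5000, HEK293T 600 cells/well), adhered overnight, then compound-treated in duplicate or triplicate; confluency tracked by IncuCyte live-cell imaging. Normalized confluence averaged from 3 experiments; absolute GI50 interpolated from four-parameter variable-slope curves.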

The target in series [3] is T1, AURKA (Homo sapiens, UniProt O14965).
T1 sequence (O14965 1-403): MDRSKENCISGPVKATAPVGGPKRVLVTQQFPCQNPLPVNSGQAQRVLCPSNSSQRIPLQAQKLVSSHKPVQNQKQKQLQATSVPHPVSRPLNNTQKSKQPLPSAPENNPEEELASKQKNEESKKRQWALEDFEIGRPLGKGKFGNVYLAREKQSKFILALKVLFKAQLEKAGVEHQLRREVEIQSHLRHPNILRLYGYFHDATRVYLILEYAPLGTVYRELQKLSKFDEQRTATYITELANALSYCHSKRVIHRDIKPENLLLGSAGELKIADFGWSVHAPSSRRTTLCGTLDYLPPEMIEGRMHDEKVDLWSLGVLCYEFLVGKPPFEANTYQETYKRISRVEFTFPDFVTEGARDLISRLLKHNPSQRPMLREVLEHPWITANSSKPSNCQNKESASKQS
As to the kind of experiment: AURKA binding assay (KINOMEscan / KdELECT, Eurofins Discovery). More on the design: purchased Eurofins Discovery. The protocol:
(§3) AURKA, AURKB and CRBN binding assays were performed by Eurofins Discovery using the KdELECT Kinase Assay Panel (AURKA and AURKB), or the E3scan Ligand Binding Assay Technology (CRBN). More information can be found on the Eurofins Discovery Web site.
as §1

Series [4] addresses T1, AURKA. As to the kind of experiment: AURKA degradation, Simple Western.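 On AURKA Degradation 24h @1000nM: measured in NGP neuroblastoma cells.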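 On AURKA Degradation 24h @100nM: measured in NGP neuroblastoma cells.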 The format is cell-based. More on the design: Representative Western blot showing levels of endogenous proteins MDR1, MYCN, AURKA, and CRBN in untreated cell lines; endogenous in cells; host or cells: NGP, IMR-32, SJNB-8, SK-N-BE(2)-C, SK-N-SH, SK-N-AS, SJNB-1, RPE, HEK293T. The settings on record: for AURKA degradation (in words): IMR-32, 24h treatment; for pDC50: AURKA degradation; for DC50: read-out: AURKA DC50. In short, it runs like this: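 Cells treated with compound in medium; lysed in RIPA and analysed by Simple Western (0.8 μg/μL lysate, 0.2 μg/μL for MYCN). Peak areas were normalized to vinculin, giving fold change versus DMSO (mean of 3 experiments); DC50 interpolated from four-parameter dose–response curves.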

The target of series [5] is T2, CRBN (Homo sapiens, UniProt Q96SW2).
T2 construct: purchased Eurofins Discovery
T2 sequence (Q96SW2 whole entry): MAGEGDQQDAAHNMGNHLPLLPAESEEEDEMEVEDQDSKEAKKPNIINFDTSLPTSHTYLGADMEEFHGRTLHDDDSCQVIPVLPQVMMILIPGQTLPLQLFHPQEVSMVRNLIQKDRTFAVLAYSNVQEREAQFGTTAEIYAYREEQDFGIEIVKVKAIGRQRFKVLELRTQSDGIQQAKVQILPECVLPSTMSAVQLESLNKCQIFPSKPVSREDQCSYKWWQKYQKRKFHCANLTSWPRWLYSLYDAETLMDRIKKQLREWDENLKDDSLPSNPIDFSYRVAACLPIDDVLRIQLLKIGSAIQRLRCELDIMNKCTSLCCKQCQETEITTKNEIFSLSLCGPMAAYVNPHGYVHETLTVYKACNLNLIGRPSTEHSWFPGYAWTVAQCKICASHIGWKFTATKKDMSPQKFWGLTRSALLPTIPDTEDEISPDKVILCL
As to the kind of experiment: CRBN binding assay (E3scan, Eurofins Discovery). The protocol: as §3, §1

Series [6] concerns NGP. Put plainly: IncuCyte live-cell imaging, antiproliferative effect. The format is cell-based. The settings on record: Homo sapiens, 72 h. In short, it runs like this:
as §2

Series [7] in a line: Plasma stability assay. It is filed as in vitro ADME, CD-1 mouse. To be noted: for half-life at 1 μM: CD-1 mouse plasma, 37 °C, read-out: plasma t1/2. As for the experimental part:
(§4) Plasma and metabolic stability tests were performed by Eurofins Discovery. For the plasma stability assay, test compounds were incubated in CD-1 mouse plasma for 0, 0.5, 1, 1.5, and 2 h at 37 °C at a concentration of 1 μM. For the metabolic stability assay, test compounds were incubated at 37 °C in either (1) CD-1 mouse liver microsomes (MLM) (0.1 mg/mL) at a concentration of 0.1 μM for 0, 15, 30, 45, and 60 min or (2) CD-1 mouse hepatocytes (MH) (0.7 million viable cells/mL) at a concentration of 1 μM for 0, 0.5, 1, 1.5, and 2 h. At the respective time points, acetonitrile was added to the incubation mixture followed by centrifugation. Samples were analyzed by HPLC-MS/MS and peak areas were recorded for each analyte. Compound stability, expressed as the percentage of parent compound remaining, was calculated by comparing the peak area of the compound at each time point relative to that of the 0h time point. Percentage compound remaining is plotted as a function of time as a logarithmic curve. Half-life (t 1/2) is estimated from the slope of the initial linear range of the curve, assuming first-order kinetics. […] Both plasma and metabolic assay experiments were performed once with 2 replicate samples each.

Series [8] in a line: Metabolic stability in mouse liver microsomes (MLM). The format is in vitro ADME, CD-1 mouse. The settings on record: CD-1. The protocol:
as §4
(In general: Microsomes from liver hold many membrane-bound enzymes, among them those of drug oxidation.)

Series [9] in a line: Metabolic stability in mouse hepatocytes (MH). The format is in vitro ADME, CD-1 mouse. The settings on record: CD-1. The protocol:
as §4

Where two headings read alike, the source gives them in different places. A value given as a limit tells only on which side of the number the result lay.

As to `Cc1cc(N(C)c2ccc(F)c(CC3(C(=O)N4CCC(F)(CN5CCN(c6ccc(N7CCC(=O)NC7=O)cn6)CC5)CC4)CCN(Cc4cccc(Cl)c4F)CC3)n2)n[nH]1` [SK5527-AURi], in series [1], the “MYCN destabilization (in words)” value is reported as “failed to destabilize MYCN”. For the same molecule, the GI50 in series [2] was around 9000 nM. Moreover, the “AURKA binding (in words)” value in [3] was “inability to bind”. Moreover, the “AURKA degradation (in words)” value in [4] is given as “failed to degrade AURKA”.
Regarding `Cc1cc(Nc2ccc(F)c(CC3(C(=O)N4CCC(F)(CN5CCN(c6ccc(N7CCC(=O)N(C)C7=O)cn6)CC5)CC4)CCN(Cc4cccc(Cl)c4F)CC3)n2)n[nH]1` [SK5527-CRBi], in series [1], the “MYCN destabilization (in words)” value is recorded as “failed to destabilize MYCN”. In [2], the GI50 was around 500 nM. Besides, the “CRBN binding (in words)” value in [5] is recorded as “inability to bind”. Besides, the “AURKA degradation (in words)” value in series [4] is given as “failed to degrade AURKA”.
As to `O=C1CCC(Nc2ccc(N3CCN(C4CN(C(=O)[C@]5(Cc6cccc(Nc7nccs7)n6)CC[C@@H](Oc6cccc(Cl)c6F)CC5)C4)CC3)nc2)C(=O)N1` (stereo partly shown) [PROTAC 20], in series [6] (read-out: GI50 72h, 72h), the GI50 came out at 19 nM. Moreover, the GI50 in series [6] (read-out: pGI50 (converted)) was 19.1 nM. The Ki in [5] turned out to be 3180 nM. Besides, in series [7], the half-life at 1 μM is above 2 h and the “plasma t1/2” value was above 2 h. The molecule further had a microsomal CLint at 0.1 μM in series [8] of 738 µL/min/mg. In addition, the hepatocyte CLint at 1 μM in series [9] was below 4.1 µL/min/1e6 cells. In addition, in series [4], the “AURKA Degradation 24h @100nM” value is reported as 90, the “AURKA Degradation 24h @1000nM” value was found to be 90, the pDC50 was 8,76 and the DC50 amounted to 1.7 nM. Further, in series [4] (NGP, 24 h treatment), the Dmax came out at 94% and the DC50 came out at 2 nM.
Turning to `O=C1CCN(Cc2ccc(C3CCN(CC4CCN(C(=O)[C@]5(Cc6cccc(Nc7nccs7)n6)CC[C@@H](Oc6cccc(Cl)c6F)CC5)CC4)CC3)nc2)C(=O)N1` [PROTAC 21], in series [6] (read-out: GI50 72h, 72h), the GI50 was determined as 46 nM. Also, the GI50 in [6] (read-out: pGI50 (converted)) is 45.7 nM. The inhibition constant Ki in [5] was determined as 455 nM. Besides, in [7], the half-life at 1 μM was above 2 h and the “plasma t1/2” value was above 2 h. This molecule displayed a microsomal CLint at 0.1 μM in series [8] of 186 µL/min/mg. For the same molecule, the hepatocyte CLint at 1 μM in series [9] is below 4.1 µL/min/1e6 cells. In addition, in [4], the “AURKA Degradation 24h @100nM” value was found to be 78, the “AURKA Degradation 24h @1000nM” value was 82, the pDC50 is on record as 7,97 and the 50% degradation concentration (DC50) is 10.8 nM. In [4] (NGP, 24 h treatment), the “AURKA degradation activity (in words)” value was “slightly reduced degradation potency compared to SK2188” and the Dmax is 85%.
